Data: the supplement of paper PMC11061612

Key:
Experiment in all cases: combination Emax (second highest fraction inhibited in the dose matrix, 72 h); higher = more inhibition; extreme values may be limits of the assay
[1] = test system: EJM (Plasma Cell Myeloma)
How it was run: (§1)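 Cell lines in DMEM/F12 or RPMI with 10% FBS were plated in 1536-well plates, held 24 hours at 37°C, 5% CO2, then given two-drug dose matrices for 72 hours (DMSO typically 0.2%). Viability was read by CellTiter-Glo 2.0 luminescence and scaled as inhibition from 0 (vehicle wells) to 1 (blank wells). Combination Emax is the second-highest inhibition in the matrix; Bliss excess is observed combination effect minus expected EA + EB − EA·EB, EA and EB being single-agent effects.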

[2] = test system: HCC1500 (Breast Carcinoma)
How it was run: as §1

[3] = test system: ML-2 (Acute Myeloid Leukemia)
How it was run: as §1

[4] = test system: ME-180 (Cervical Carcinoma)
How it was run: as §1

[5] = test system: EFO-21 (Ovarian Carcinoma)
How it was run: as §1

[6] = test system: SW982 (Other Solid Carcinomas)
How it was run: as §1

[7] = test system: NCI-H1838 (Lung Adenocarcinoma)
How it was run: as §1

[8] = test system: Mo-T (Other Blood Carcinomas)
How it was run: as §1

[9] = test system: MOLT-4 (T-Lymphoblastic Leukemia)
How it was run: as §1

[10] = test system: Ca-Ski (Cervical Carcinoma)
How it was run: as §1

[11] = test system: HAL-01 (B-Lymphoblastic Leukemia)
How it was run: as §1

[12] = test system: G-401 (Other Solid Carcinomas)
How it was run: as §1

[13] = test system: SNU-387 (Hepatocellular Carcinoma)
How it was run: as §1

EW-1 (Ewing's Sarcoma) = test system: EW-1 (Ewing's Sarcoma)
How it was run: as §1

COLO-679 (Melanoma) = test system: COLO-679 (Melanoma)
How it was run: as §1

[14] = test system: KGN (Other Solid Carcinomas)
How it was run: as §1

[15] = test system: NCI-H650 (Lung Adenocarcinoma)
How it was run: as §1

[16] = test system: MV-4-11 (Acute Myeloid Leukemia)
How it was run: as §1

[17] = test system: KOPN-8 (B-Lymphoblastic Leukemia)
How it was run: as §1

[18] = test system: KMRC-1 (Kidney Carcinoma)
How it was run: as §1

| Compound | combination Emax [1] | combination Emax [2] | combination Emax [3] | combination Emax [4] | combination Emax [5] | combination Emax [6] | combination Emax [7] | combination Emax [8] | combination Emax [9] | combination Emax [10] | combination Emax [11] | combination Emax [12] | combination Emax [13] | combination Emax (EW-1 (Ewing's Sarcoma)) | combination Emax (COLO-679 (Melanoma)) | combination Emax [14] | combination Emax [15] | combination Emax [16] | combination Emax [17] | combination Emax [18] |
| --- | --- | --- | --- | --- | --- | --- | --- | --- | --- | --- | --- | --- | --- | --- | --- | --- | --- | --- | --- | --- |
| NC1(C(=O)N[C@@H](CCO)c2ccc(Cl)cc2)CCN(c2ncnc3[nH]ccc23)CC1 [Capivasertib] + Cn1cnc2c(F)c(Nc3ccc(Br)cc3Cl)c(C(=O)NOCCO)cc21 [Selumetinib] (first compound max 10 µM, 7x7, partner max 10 µM) | 0.403 | 0.25 | 0.985 | 0.681 | 0.335 | 0.574 | 0.367 | 0.41 | 0.758 | 0.597 | 0.554 | 0.746 | 0.409 | 0.437 | 0.786 | 0.54 | 0.352 | 0.881 | 0.722 | 0.504 |
| COc1nnc2ccc(N3CCC(c4ccc(OCCN5CCN(C)C(=O)[C@H]5C)cc4)CC3)nn12 [AZD5153] + CCN(CCO)CCCOc1ccc2c(Nc3cc(CC(=O)Nc4cccc(F)c4)[nH]n3)ncnc2c1 [AZD2811] (first compound max 1 µM, 7x7, partner max 1 µM) | 0.613 | 0.41 | 1 | 0.524 | 0.425 | 0.807 | 0.441 | 0.599 | 1 | 0.591 | 0.752 | 0.806 | 0.487 | 0.64 | 0.485 | 0.691 | 0.443 | 1 | 0.996 | 0.316 |
| NC1(C(=O)N[C@@H](CCO)c2ccc(Cl)cc2)CCN(c2ncnc3[nH]ccc23)CC1 [Capivasertib] + CC(C)n1c(=O)n(C)c2cnc3cc(F)c(-c4ccc(OCCCN5CCCCC5)nc4)cc3c21 [AZD1390] (first compound max 10 µM, 7x7, partner max 0.3 µM) | 0.292 | 0.165 | 0.71 | 0.636 | 0.217 | 0.435 | 0.206 | 0.239 | 0.682 | 0.433 | 0.492 | 0.545 | 0.256 | 0.352 | 0.225 | 0.414 | 0.268 | 0.722 | 0.627 | 0.435 |
| NC1(C(=O)N[C@@H](CCO)c2ccc(Cl)cc2)CCN(c2ncnc3[nH]ccc23)CC1 [Capivasertib] + CCN(CCO)CCCOc1ccc2c(Nc3cc(CC(=O)Nc4cccc(F)c4)[nH]n3)ncnc2c1 [AZD2811] (first compound max 10 µM, 7x7, partner max 1 µM) | 0.43 | 0.265 | 1 | 0.7 | 0.235 | 0.672 | 0.386 | 0.321 | 0.997 | 0.465 | 0.464 | 0.658 | 0.312 | 0.568 | 0.31 | 0.688 | 0.346 | 0.954 | 0.86 | 0.494 |
| CC1(C)CCC(CN2CCN(c3ccc(C(=O)NS(=O)(=O)c4ccc(NCC5CCOCC5)c([N+](=O)[O-])c4)c(Oc4cnc5[nH]ccc5c4)c3)CC2)=C(c2ccc(Cl)cc2)C1 [Venetoclax] + C=CCn1c(=O)c2cnc(Nc3ccc(N4CCN(C)CC4)cc3)nc2n1-c1cccc(C(C)(C)O)n1 [AZD1775] (first compound max 1 µM, partner max 1 µM) | 0.928 | 0.781 | 1 | 0.599 | 0.581 | 0.742 | 0.421 | 0.629 | 1 | 0.836 | 1 | 0.83 | 0.702 | 0.947 | 0.413 | 0.68 | 0.393 | 1 | 1 | 0.394 |
| CCc1c2c(nc3ccc(O)cc13)-c1cc3c(c(=O)n1C2)COC(=O)[C@]3(O)CC [SN-38] + CN(C)CCCOc1ccc(-c2ccc3ncc4c(c3c2)n(C2CCOCC2)c(=O)n4C)cn1 [AZD0156] (first compound max 0.3 µM, 7x7, partner max 1 µM) | 0.903 | 0.708 | 1 | 0.892 | 0.529 | 0.803 | 0.607 | 0.673 | 1 | 0.99 | 1 | 0.596 | 0.229 | 0.982 | 0.659 | 0.937 | 0.607 | 1 | 0.957 | 0.419 |
| CN(CCO)CC[C@H](CSc1ccccc1)Nc1ccc(S(=O)(=O)NC(=O)c2ccc(N3CCC([C@@H](O)c4ccccc4-c4ccc(Cl)cc4)CC3)cc2)cc1S(=O)(=O)C(F)(F)F [AZD4320] + C=CCn1c(=O)c2cnc(Nc3ccc(N4CCN(C)CC4)cc3)nc2n1-c1cccc(C(C)(C)O)n1 [AZD1775] (first compound max 1 µM, partner max 1 µM) | 0.977 | 0.995 | 1 | 0.581 | 0.53 | 0.953 | 0.541 | 0.984 | 1 | 0.96 | 1 | 0.901 | 0.681 | 1 | 0.521 | 0.784 | 0.564 | 1 | 1 | 0.278 |
| COc1nnc2ccc(N3CCC(c4ccc(OCCN5CCN(C)C(=O)[C@H]5C)cc4)CC3)nn12 [AZD5153] + C=CCn1c(=O)c2cnc(Nc3ccc(N4CCN(C)CC4)cc3)nc2n1-c1cccc(C(C)(C)O)n1 [AZD1775] (first compound max 1 µM, partner max 1 µM) | 0.867 | 0.402 | 1 | 0.68 | 0.51 | 0.825 | 0.441 | 0.729 | 1 | 0.791 | 0.88 | 0.914 | 0.469 | 0.883 | 0.505 | 0.781 | 0.487 | 1 | 1 | 0.358 |
| CC1(C)CCC(CN2CCN(c3ccc(C(=O)NS(=O)(=O)c4ccc(NCC5CCOCC5)c([N+](=O)[O-])c4)c(Oc4cnc5[nH]ccc5c4)c3)CC2)=C(c2ccc(Cl)cc2)C1 [Venetoclax] + COc1cc(Nc2ncc3c(n2)-c2ccc(Cl)cc2C(c2c(F)cccc2OC)=NC3)ccc1C(=O)O [Alisertib] (first compound max 1 µM, 7x7, partner max 10 µM) | 0.146 | 0.805 | 0.988 | 0.603 | 0.359 | 0.606 | 0.437 | 0.71 | 0.959 | 0.64 | 1 | 0.657 | 0.191 | 0.628 | 0.282 | 0.685 | 0.319 | 1 | 1 | 0.384 |
| NC1(C(=O)N[C@@H](CCO)c2ccc(Cl)cc2)CCN(c2ncnc3[nH]ccc23)CC1 [Capivasertib] + COc1nnc2ccc(N3CCC(c4ccc(OCCN5CCN(C)C(=O)[C@H]5C)cc4)CC3)nn12 [AZD5153] (first compound max 10 µM, 7x7, partner max 1 µM) | 0.658 | 0.264 | 0.997 | 0.693 | 0.321 | 0.848 | 0.264 | 0.649 | 1 | 0.591 | 0.719 | 0.79 | 0.552 | 0.71 | 0.578 | 0.709 | 0.579 | 1 | 0.992 | 0.557 |
| CC(=O)Nc1cccc(-n2c(=O)n(C3CC3)c(=O)c3c(Nc4ccc(I)cc4F)n(C)c(=O)c(C)c32)c1 [Trametinib] + Cc1nc(-c2cn3c(n2)-c2ccc(-c4cnn(C(C)(C)C(N)=O)c4)cc2OCC3)n(C(C)C)n1 [Taselisib] (first compound max 1 µM, 7x7, partner max 10 µM) | 0.488 | 0.319 | 0.968 | 0.714 | 0.618 | 0.83 | 0.476 | 0.524 | 0.859 | 0.816 | 0.687 | 0.958 | 1 | 0.761 | 0.856 | 0.807 | 0.705 | 0.848 | 0.635 | 0.748 |
| COc1nnc2ccc(N3CCC(c4ccc(OCCN5CCN(C)C(=O)[C@H]5C)cc4)CC3)nn12 [AZD5153] + CC1(C)CCC(CN2CCN(c3ccc(C(=O)NS(=O)(=O)c4ccc(NCC5CCOCC5)c([N+](=O)[O-])c4)c(Oc4cnc5[nH]ccc5c4)c3)CC2)=C(c2ccc(Cl)cc2)C1 [Venetoclax] (first compound max 1 µM, 7x7, partner max 1 µM) | 0.543 | 0.755 | 1 | 0.49 | 0.425 | 0.767 | 0.35 | 0.611 | 0.425 | 0.616 | 0.979 | 0.821 | 0.434 | 0.56 | 0.442 | 0.729 | 0.381 | 1 | 1 | 0.263 |
